We go through 21 compounds from article PMC6154314, “Evaluation of the Mycobactericidal Effect of Thio-functionalized Carbohydrate Derivatives” (Molecules : A Journal of Synthetic Chemistry and Natural …, 2017).

A short description of data set [1]: Lipophilicity, octanol/water partition coefficient (LogP). It counts as physicochemical. As to the method: The most important parameter of drug candidates is lipophilicity, which determines water solubility, absorption and often cytotoxicity. The lipophilicity of the synthesized compounds was measured as the partition (P) or distribution (D) coefficient. The octanol/water partition/distribution coefficient is a widely used parameter for measuring lipophilicity. The Log P value is the ratio of the concentrations of a neutral substance in two immiscible phases: water and octan-1-ol. Log D is the log partition at a particular pH, and it is usually reserved for partition coefficients measured under conditions in which the solute is partially or completely ionized in the aqueous phase. For all compounds used in this work, the LogP and cLogP values were determined (Table 4). Each compound was also analysed by TLC (thin layer chromatography) and ^1H-NMR to verify its purity. All synthesized and tested compounds were analytically pure. Complete characterization of the products was performed by NMR spectroscopy and HR-MS techniques to confirm their purity and molecular structures.

Data set [2] concerns Mycobacterium tuberculosis H37Rv strain (Mtb). Description: Susceptibility of M. tuberculosis in broth culture (OD600 and CFU analysis). It counts as cell-based. The following applies: for MIC50 anti-Mtb (OD) / MIC50: M. tuberculosis H37Rv, broth culture, 96 h; for Bactericidal activity against M. tuberculosis (in words): tested at 1–0.25 mM, OD600; for MIC50: Mycobacterium tuberculosis.

In the next data set the test system is Staphylococcus aureus. As to the kind of experiment: Broth microdilution susceptibility test (CLSI), S. aureus. Type of data set: cell-based. Conditions: for MIC50: Staphylococcus aureus, read-out: MIC50 anti-S. aureus.
For another data set, the system named is Escherichia coli. Description: Broth microdilution susceptibility test (CLSI), E. coli. It counts as cell-based. Conditions: for MIC50: Escherichia coli, read-out: MIC50 anti-E. coli.
The test system of data set [3] is human monocyte-derived macrophages (MDMs). Conditions: MTT, 48 h, uninfected MDMs; 50, 30, 30, 25 µM for 6, 16A, 20, 23.
In data set [4] the test system is Mycobacterium tuberculosis in human monocyte-derived macrophages. Description: Bactericidal effect against intracellularly growing tubercle bacilli in human monocyte-derived macrophages (CFU). Type of data set: cell-based. Conditions: Mtb-infected human MDMs; for Inhibition of growth of intracellularly deposited tubercle bacilli (in words): 48 h, compounds at MIC50 concentrations.

For another data set, the system named is bacterium. More on the design: method as in PMID 387415, PMID 16707680. Conditions: as low as; after siderophore-dependent uptake and intracellular activation; cited from earlier work.
The mark [5] stands for this setting: microdilution, Mueller-Hinton broth, 18 h, OD600.
Setting [6] is: read by OD600, read-out: MIC50 anti-Mtb (OD).
Setting [7] is: read by CFU, read-out: MIC50 anti-Mtb (CFU).

Values after ≈ are worked out from the molar mass of the structure shown. “Also recorded” adds a separate entry of the source. Where two headings read alike, the source gives them in different places.

For “5-thio-D-glucose pentaacetate [Compound 1]”, the logP in data set [1] (octanol/water) is recorded as −0.51. Further, the “MIC50 anti-Mtb (OD)” value in data set [2] (read by OD600) was “MIC50 > 1 mM/OD”. Also, the “Bactericidal activity against M. tuberculosis (in words)” value (“Bactericidal activity” for short) in data set [2] is given as “not bactericidal”.

Compound 6-thio-β-D-fructopyranose [Compound 2] had a logP in data set [1] (octanol/water) of −1.36. For the same compound, in the data set on Staphylococcus aureus (setting [5]), the “MIC50 anti-S. aureus” value is listed as “MIC50 > 2 mM/E. coli MIC50 > 2 mM/S. aureus”. The “MIC50 anti-Mtb (OD)” value in data set [2] (read by OD600) is given as “MIC50 > 1 mM/OD”. Besides, the “Bactericidal activity” value in data set [2] is listed as “not bactericidal”. Also, the “MIC50 anti-E. coli” value in the data set on Escherichia coli (setting [5]) is “MIC50 > 2 mM/E. coli MIC50 > 2 mM/S. aureus”.

Turning to `OC[C@@]12CO[C@H](O1)[C@H](O)[C@@H](O)[C@H]2O` [Compound 3, 1,6-anhydro-5-C-hydroxymethyl-α-L-altro-pyranose], the logP in data set [1] is -2.38. In addition, the MIC50 in data set [2] (setting [6]) was over 1000 µM. The “Bactericidal activity” value in data set [2] is given as “not observed”.

Compound `OC1C(O)C(O)C2(CO2)C(O)C1O` (centres unmarked) [Compound 4, 2-C-methylene-myo-inositol oxide] had a logP in data set [1] of -3.22. In data set [2] (setting [6]), the MIC50 is over 1000 µM. For the same compound, the “Bactericidal activity” value in data set [2] is “not active”.

Take `CS(=O)(=O)NC[C@H]1OC[C@H](O)[C@@H](O)[C@@H]1O` [Compound 5, 1,5-anhydro-6-deoxy-6-methanesulfamido-D-glucitol]: the log partition coefficient (logP) in data set [1] is -3.6. For the same compound, the MIC50 in the data set on Staphylococcus aureus (setting [5]) is over 2 mM; in data set [2] (setting [6]) it was over 1000 µM; in the data set with Escherichia coli (setting [5]), over 2000 µM. Moreover, the “Bactericidal activity” value in data set [2] is listed as “not active”.

In data set [1], `CC(=O)OC[C@H]1O[C@@H](S[C@@H]2CC(=O)[C@@H]3OC[C@H]2O3)[C@H](OC(C)=O)[C@@H](OC(C)=O)[C@@H]1OC(C)=O` [Compound 6] returned a lipophilicity (logP) of -1.13. Further, the MIC50 in the data set on Staphylococcus aureus (setting [5]) is 2.5 mM (≈ 1230 µg/mL); in data set [2] (setting [7]) it was 50 µM (≈ 24.5 µg/mL); with Escherichia coli (setting [5]), 5000 µM (≈ 2450 µg/mL). In addition, the “OD[570nm] ± SD” value in data set [3] was determined as 2.163 ± 0.054. In addition, the “Inhibition of growth of intracellularly deposited tubercle bacilli (in words)” value (“Inhibition” below) in data set [4] was “able to inhibit the growth; also recorded: significantly inhibit the growth”.

Compound `O=C1C[C@@H](S[C@@H]2O[C@H](CO)[C@@H](O)[C@H](O)[C@H]2O)[C@H]2CO[C@@H]1O2` [Compound 7, 1,6-anhydro-3-deoxy-4-S-β-D-glucopyranosyl-D-glycero-hexopyranos-2-ulose] registered a logP in data set [1] of -2.05. The MIC50 was over 10 mM in the data set on Staphylococcus aureus (setting [5]), 500 µM (≈ 161 µg/mL) in data set [2] (setting [7]) and over 10000 µM in the data set with Escherichia coli (setting [5]). The “Fold increase of the concentration (MIC50) needed to inhibit Mtb relative to compound 6” value in data set [2] is reported as 10 times.

Compound `O=C(O)c1ccccc1S[C@@H]1CC(=O)[C@@H]2OC[C@H]1O2` [Compound 8, 1,6-anhydro-3-deoxy-4-S-β-salicylyl-D-glycero-hexopyranos-2-ulose] gave a logP in data set [1] of 1.28. Besides, the MIC50 in the data set on Staphylococcus aureus (setting [5]) was over 10 mM; in data set [2] (setting [7]), 200 µM (≈ 56.1 µg/mL); with Escherichia coli (setting [5]), over 10000 µM. The “Fold increase of the concentration (MIC50) needed to inhibit Mtb relative to compound 6” value in data set [2] is recorded as 4 times.

As to `CC(=O)OC[C@H]1O[C@@H](S[C@@H]2CC(=O)[C@@H]3OC[C@H]2O3)[C@H](OC(C)=O)[C@@H](OC(C)=O)[C@H]1OC(C)=O` [Compound 9], the logP in data set [1] was -1.13. In data set [2] (setting [6]), the MIC50 was over 150 µM. Also, in data set [2], the “Fold increase of the concentration (MIC50) needed to inhibit Mtb relative to compound 6” value is “at least 3 times”.

`CC(=O)N[C@H]1CO[C@H](CO)[C@@H](O)[C@@H]1O` [Compound 10, 2-acetamido-2-dexy-1,5-anhydro-D-mannitol] yielded a lipophilicity (logP) in data set [1] of -2.75. Besides, the MIC50 with Staphylococcus aureus (setting [5]) is over 10 mM; in data set [2] (setting [6]), over 1000 µM; with Escherichia coli (setting [5]), over 10000 µM.

In data set [1], `CC1(C)O[C@H]2O[C@H](C3CO3)[C@H](O)[C@H]2O1` (stereo partly drawn) [Compound 11, 1,2-O-isopropylidene-5,6-anhydro-D-glucofuranose] showed a logP of -0.39. The MIC50 in data set [2] (setting [6]) worked out at 750 µM (≈ 152 µg/mL).

As for `COCC(OC(C)=O)[C@H]1O[C@@H]2OC(C)(C)O[C@@H]2[C@H]1OC(C)=O` (stereo partly drawn) [Compound 12, 1,2-O-isopropylidene-3,5-di-O-acetyl-6-methoxy-D-glucofuranose], the logP in data set [1] was -0.2. The MIC50 with Staphylococcus aureus (setting [5]) is over 10 mM; in data set [2] (setting [6]) it was over 1000 µM; in the data set on Escherichia coli (setting [5]) it was over 5000 µM.

Take `O=[N+]([O-])CC1(O)O[C@H](CO)[C@@H](O)[C@H](O)[C@H]1O` (stereo partly drawn) [Compound 13, 1-C-nitromethyl-D-gluco-pyranose]: the logP in data set [1] was -4.22. Also, the MIC50 with Staphylococcus aureus (setting [5]) is over 10 mM; in data set [2] (setting [6]), over 1000 µM; in the data set on Escherichia coli (setting [5]) it was over 10000 µM.

Regarding `NC(=S)NN=C1C=C[C@H]2CO[C@@H]1O2` [Compound 14, 1,6-anhydro-3,4-dideoxy-α-D-glycero-hex-3-enopyranos-2-thiosemicarbazone], the logP in data set [1] was -0.18. Moreover, the MIC50 with Staphylococcus aureus (setting [5]) was over 5 mM; in data set [2] (setting [6]), 350 µM (≈ 69.7 µg/mL); in the data set with Escherichia coli (setting [5]), over 5000 µM.

Turning to `NC(=S)NN=C1CC[C@H]2CO[C@@H]1O2` [Compound 14A, 1,6-anhydro-3,4-dideoxy-α-D-glycero-hexopyranos-2-thiosemicarbazone], the log partition coefficient (logP) in data set [1] is -0.29. Further, the MIC50 is over 1.25 mM with Staphylococcus aureus (setting [5]), over 1000 µM in data set [2] (setting [6]) and over 2500 µM in the data set on Escherichia coli (setting [5]).

In the case of `CC(=O)OC[C@H]1O[C@@H](O[C@H]2[C@H](OC(C)=O)[C@@H](OC(C)=O)[C@H](S[C@@H]3CC(=NNC(N)=S)[C@@H]4OC[C@H]3O4)O[C@@H]2COC(C)=O)[C@H](OC(C)=O)[C@@H](OC(C)=O)[C@H]1OC(C)=O` [Compound 16A], the MIC50 is over 1.25 mM with Staphylococcus aureus (setting [5]); 30 µM (≈ 25.6 µg/mL) in data set [2] (setting [7]); over 150 µM with Escherichia coli (microdilution, Mueller-Hinton broth, 18 h, OD600, printed in µM). Besides, the “Inhibition” value in data set [4] is listed as “able to inhibit the growth”. The “Decrease of the number of intracellularly growing mycobacteria” value in data set [4] (MOI 1:10, 48 h, compound at MIC (30 µM for 16A), CFU vs untreated control) is recorded as about 61%. Moreover, the “Concentration inhibiting the growth of E. coli” value in the data set on Escherichia coli is recorded as “below 1 mM”.

With `CC(=O)OC[C@H]1O[C@@H](O[C@H]2[C@H](OC(C)=O)[C@@H](OC(C)=O)[C@H](S[C@@H]3CC(=O)[C@@H]4OC[C@H]3O4)O[C@@H]2COC(C)=O)[C@H](OC(C)=O)[C@@H](OC(C)=O)[C@H]1OC(C)=O` [Compound 16], the logP in data set [1] was -2.18. In addition, the MIC50 is over 5 mM in the data set on Staphylococcus aureus (setting [5]), 500 µM (≈ 389 µg/mL) in data set [2] (setting [6]) and over 5000 µM in the data set on Escherichia coli (setting [5]). For the same compound, the “Fold increase of the concentration (MIC50) needed to inhibit Mtb relative to compound 6” value in data set [2] was found to be 10 times.

With `CC(=O)OC[C@H]1O[C@@H](O[C@H]2[C@H](OC(C)=O)[C@@H](OC(C)=O)[C@H](SC34CC5CC(CC(C5)C3)C4)O[C@@H]2COC(C)=O)[C@H](OC(C)=O)[C@@H](OC(C)=O)[C@H]1OC(C)=O` [Compound 19], in data set [2] (setting [6]), the MIC50 amounted to 500 µM (≈ 393 µg/mL).

The compound `Nc1nnc(S[C@@H]2CC(=O)[C@@H]3OC[C@H]2O3)s1` [Compound 23, (1R,2R,5R)-2-((5-amino-1,3,4-thiadiazol-2-yl)-thio)-6,8-dioxabicyclo[3.2.1]octan-4-one] came in with a melting point of 140 to 142 °C. The compound further gave a logP in data set [1] of 1.37. Besides, the “Concentration inhibiting the growth of S. aureus” value in the data set with Staphylococcus aureus is on record as at most 1 mM. Moreover, the MIC50 with Staphylococcus aureus (setting [5]) is over 0.625 mM. Also, in data set [3], the “OD[570nm] ± SD” value is 2.428 ± 0.031. The MIC50 in data set [2] (setting [7]) stood at 25 µM (≈ 6.48 µg/mL). Also, the “Inhibition” value in data set [4] is “able to inhibit the growth; also recorded: significantly inhibit the growth”. The “Concentration inhibiting the growth of E. coli” value in the data set with Escherichia coli was “below 1 mM”. Further, the MIC50 in the data set on Escherichia coli (setting [5]) was over 1250 µM.

Compound `O=C1C[C@@H](SC2=NCCS2)[C@H]2CO[C@@H]1O2` [Compound 26, (1R,2R,5R)-2-((4,5-dihydrothiazol-2-yl)-thio)-6,8-dioxabicyclo[3.2.1]octan-4-one] displayed a melting point of 127 to 129 °C. The same compound registered a logP in data set [1] of 1.13. In the data set with Staphylococcus aureus (setting [5]), the MIC50 was over 2.5 mM. Also, the MIC50 in data set [2] (setting [7]) turned out to be 50 µM (≈ 12.3 µg/mL). Besides, the “Inhibition” value in data set [4] is given as “able to inhibit the growth”. In the data set on Escherichia coli, the “Concentration inhibiting the growth of E. coli” value is recorded as “below 1 mM”. Also, the MIC50 in the data set on Escherichia coli (setting [5]) was over 2500 µM.

Take albomycin: the MIC in the data set on bacterium is recorded as 8 nM.
